Experiments:
[1] = target: human vasopressin V1a receptor (Homo sapiens, UniProt P37288); experiment: Vasopressin V1a receptor binding assay; conditions: selectivity: quotient of Ki at human V1a and Ki at human V1b
[2] = target: T1, human vasopressin V1b receptor (Homo sapiens, UniProt P47901); experiment: Vasopressin V1b receptor binding assay; conditions: membranes from CHO-K1 cells with human V1b receptor, 1.5 nM 3H-AVP
T1 construct: expressed in transfected cells; host or cells: CHO-K1 (clone 3H2; cell line hV1b-3H2_CHO), membrane preparation
T1 sequence (P47901 1-424): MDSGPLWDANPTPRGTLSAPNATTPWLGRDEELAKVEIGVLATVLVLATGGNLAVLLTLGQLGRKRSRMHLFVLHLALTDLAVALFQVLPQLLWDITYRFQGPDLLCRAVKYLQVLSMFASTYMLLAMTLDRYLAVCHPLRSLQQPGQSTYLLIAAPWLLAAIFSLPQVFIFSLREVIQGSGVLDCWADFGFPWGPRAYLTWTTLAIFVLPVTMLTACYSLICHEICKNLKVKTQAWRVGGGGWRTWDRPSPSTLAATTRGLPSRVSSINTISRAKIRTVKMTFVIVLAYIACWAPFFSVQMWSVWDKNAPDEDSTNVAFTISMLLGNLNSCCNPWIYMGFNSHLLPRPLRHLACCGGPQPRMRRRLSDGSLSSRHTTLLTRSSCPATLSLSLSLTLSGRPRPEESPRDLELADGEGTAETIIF
Method: 1. Vasopressin V1b Receptor Binding Assay:
The substance concentration was further diluted 1:5 in the assay mixture (2% DMSO in the mixture).
The nonspecific binding was determined with 1 M AVP (Bachem # H1780). All determinations were carried out as triplicate determinations.

[3] = Determination of the microsomal half-life / microsomal clearance; type: in vitro ADME; conditions: human liver microsomes, 0.5 μM test substance, 0.25 mg microsomal protein/ml; for microsomal CLint at 0.5 μM: pH 7.4
Method: 5. Determination of the Microsomal Half-Life:
The metabolic stability of the compounds of the invention was determined in the following assay.
The test substances were incubated in a concentration of 0.5 μM as follows: 0.5 μM test substance are preincubated together with liver microsomes from different species (from rat, human or other species) (0.25 mg of microsomal protein/ml) in 0.05 M potassium phosphate buffer of pH 7.4 in microtiter plates at 37° C. for 5 min. The reaction is started by adding NADPH (1 mg/mL). After 0, 5, 10, 15, 20 and 30 min, 50 μl aliquots are removed, and the reaction is immediately stopped and cooled with the same volume of acetonitrile. The samples are frozen until analyzed. The remaining concentration of undegraded test substance is determined by MSMS. The half-life (T½) is determined from the gradient of the signal of test substance/unit time plot, it being possible to calculate the half-life of the test substance, assuming first order kinetics, from the decrease in the concentration of the compound with time. The microsomal clearance (mCl) is calculated from mCl=In2/T½/(content of microsomal protein in mg/ml)×1000 […] (modified from references: Di, The Society for Biomoleculur Screening, 2003, 453-462; Obach, DMD, 1999 vol 27. N 11, 1350-1359).

Sequence of human vasopressin V1a receptor (P37288 whole entry): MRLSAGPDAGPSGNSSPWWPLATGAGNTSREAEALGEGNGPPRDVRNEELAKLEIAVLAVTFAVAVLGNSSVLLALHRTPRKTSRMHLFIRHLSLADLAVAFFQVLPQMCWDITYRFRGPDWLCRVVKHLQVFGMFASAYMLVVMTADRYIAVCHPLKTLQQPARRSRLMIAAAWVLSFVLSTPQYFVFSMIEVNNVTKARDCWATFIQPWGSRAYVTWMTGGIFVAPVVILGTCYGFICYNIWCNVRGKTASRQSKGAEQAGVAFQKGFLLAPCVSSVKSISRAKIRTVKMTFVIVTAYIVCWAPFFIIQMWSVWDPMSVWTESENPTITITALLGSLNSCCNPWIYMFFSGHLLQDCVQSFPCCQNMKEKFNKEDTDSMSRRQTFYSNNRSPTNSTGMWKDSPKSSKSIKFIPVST

Compound	Ki(h-V1a)/Ki(h-V1b) [1]	Ki [2]	microsomal CLint at 0.5 μM [3]	Human microsomal clearance [3]
CCOc1ncccc1C1(NC(=O)N2CCC(C3CCN(C)CC3)CC2)C(=O)N(S(=O)(=O)c2ccc(OC)cc2OC)c2ccc(Cl)cc21 (racemic) [Example 13, (±)-1′-Methyl-[4,4′]bipiperidinyl-1-[5-chloro-1-(2,4-dimethoxyphenylsulfonyl)-3-(2-ethoxypyridin-3-yl)-2-oxo-2,3-dihydro-1H-indol-3-yl]carboxamide]	++ (25-75)	< 1 nM	75 to 100 µL/min/mg	
CCOc1ncccc1C1(NC(=O)N2CCN(C3CCN(C)CC3)CC2)C(=O)N(S(=O)(=O)c2ccc(OC)cc2OC)c2ccc(Cl)cc21 (single isomer, unassigned; (+)) [Example 1B, (+)-4-(1-Methylpiperidin-4-yl)piperazine-1-[5-chloro-1-(2,4-dimethoxyphenylsulfonyl)-3-(2-ethoxypyridin-3-yl)-2-oxo-2,3-dihydro-1H-indol-3-yl]carboxamide]	+++ (>75)	< 1 nM	< 50 µL/min/mg	
CCOc1ncccc1C1(NC(=O)N2CCC(N3CCN(C)CC3)CC2)C(=O)N(S(=O)(=O)c2ccc(OC)cc2OC)c2ccc(Cl)cc21 (single isomer, unassigned; (+)) [Example 5B, (+)-4-(4-Methylpiperazin-1-yl)piperidine-1-[5-chloro-1-(2,4-dimethoxyphenylsulfonyl)-3-(2-ethoxypyridin-3-yl)-2-oxo-2,3-dihydro-1H-indol-3-yl]carboxamide]	+++ (>75)	< 1 nM	< 50 µL/min/mg	
CCOc1ncccc1C1(OC(=O)N2CCN(C3CCN(C)CC3)CC2)C(=O)N(S(=O)(=O)c2ccccc2)c2ccc(Cl)cc21.O=C(O)C(F)(F)F (racemic) [Example 24, 1-Phenylsulfonyl-5-chloro-3-(2-ethoxypyridin-3-yl)-2-oxo-2,3-dihydro-1H-indol-3-yl (±)-4-(1-methylpiperidin-4-yl)piperazine-1-carboxylate, trifluoroacetic acid salt]	++ (25-75)	1 to 10 nM	50 to 75 µL/min/mg	
CCOc1ncc(C)cc1C1(NC(=O)N2CCC(N3CCN(CC)CC3)CC2)C(=O)N(S(=O)(=O)c2ccc(OC)cc2OC)c2ccc(Cl)cc21.O=C(O)C(F)(F)F (racemic) [Example 17, (±)-4-(4-Ethylpiperazin-1-yl)piperidine-1-[5-chloro-1-(2,4-dimethoxyphenylsulfonyl)-3-(2-ethoxy-5-methylpyridin-3-yl)-2-oxo-2,3-dihydro-1H-indol-3-yl]carboxamide, trifluoroacetic acid salt]	+ (10-<25)	< 1 nM		+ (>75-100 μl min^−1 mg^−1)
CCOc1ncccc1C1(NC(=O)N2CCN(C3CCN(C)CC3)CC2)C(=O)N(S(=O)(=O)c2ccccc2)c2ccc(Cl)cc21.O=C(O)C(F)(F)F (racemic) [Example 3, (±)-4-(1-Methylpiperidin-4-yl)piperazine-1-[1-phenylsulfonyl-5-chloro-3-(2-ethoxypyridin-3-yl)-2-oxo-2,3-dihydro-1H-indol-3-yl]carboxamide, trifluoroacetic acid salt]	++ (25-75)	1 to 10 nM		+++ (<50 μl min^−1 mg^−1)
CCOc1ncc(C)cc1C1(NC(=O)N2CCC(N3CCN(C)CC3)CC2)C(=O)N(S(=O)(=O)c2ccc(OC)cc2OC)c2ccc(Cl)cc21.O=C(O)C(F)(F)F (racemic) [Example 16, (±)-4-(4-Methylpiperazin-1-yl)piperidine-1-[5-chloro-1-(2,4-dimethoxyphenylsulfonyl)-3-(2-ethoxy-5-methylpyridin-3-yl)-2-oxo-2,3-dihydro-1H-indol-3-yl]carboxamide, trifluoroacetic acid salt]	+ (10-<25)	< 1 nM		+ (>75-100 μl min^−1 mg^−1)
CCOc1ncccc1C1(NC(=O)N2CCN(C3CCN(C)CC3)CC2)C(=O)N(S(=O)(=O)c2ccc(OC)cc2OC)c2ccc(Cl)cc21 (racemic) [Example 1, (±)-4-(1-Methylpiperidin-4-yl)piperazin-1-[5-chloro-1-(2,4-dimethoxyphenylsulfonyl)-3-(2-ethoxypyridin-3-yl)-2-oxo-2,3-dihydro-1H-indol-3-yl]carboxamide]	+++ (>75)	< 1 nM	75 to 100 µL/min/mg	
CCOc1ncccc1C1(NC(=O)N2CCN(C3CCN(CC)CC3)CC2)C(=O)N(S(=O)(=O)c2ccc(OC)cc2OC)c2ccc(Cl)cc21 (single isomer, unassigned; (+)) [Example 4B, (+)-4-(1-Ethylpiperidin-4-yl)piperazine-1-[5-chloro-1-(2,4-dimethoxyphenylsulfonyl)-3-(2-ethoxypyridin-3-yl)-2-oxo-2,3-dihydro-1H-indol-3-yl]carboxamide]	+++ (>75)	< 1 nM	50 to 75 µL/min/mg	
CCOc1ncc(C)cc1C1(NC(=O)N2CCN(C3CCN(C)CC3)CC2)C(=O)N(S(=O)(=O)c2ccc(OC)cc2OC)c2ccc(Cl)cc21.O=C(O)C(F)(F)F (racemic) [Example 14, (±)-4-(1-Methylpiperidin-4-yl)piperazine-1-[5-chloro-1-(2,4-dimethoxyphenylsulfonyl)-3-(2-ethoxy-5-methylpyridin-3-yl)-2-oxo-2,3-dihydro-1H-indol-3-yl]carboxamide, trifluoroacetic acid salt]	+++ (>75)	< 1 nM		++ (50-75 μl min^−1 mg^−1)
CCOc1ncccc1C1(CC(=O)N2CCN(C3CCN(C)CC3)CC2)C(=O)N(S(=O)(=O)c2ccc(OC)cc2OC)c2ccc(Cl)cc21.O=C(O)C(F)(F)F (racemic) [Example 28, (±)-5-Chloro-1-(2,4-dimethoxyphenylsulfonyl)-3-(2-ethoxypyridin-3-yl)-3-{2-[4-(1-methylpiperidin-4-yl)piperazin-1-yl]-2-oxoethyl}-1,3-dihydroindol-2-one, trifluoroacetic acid salt]	++ (25-75)	< 1 nM	75 to 100 µL/min/mg	
CCOc1ncc(C)cc1C1(NC(=O)N2CCN(C3CCN(CC)CC3)CC2)C(=O)N(S(=O)(=O)c2ccc(OC)cc2OC)c2ccc(Cl)cc21.O=C(O)C(F)(F)F (racemic) [Example 15, (±)-4-(1-Ethylpiperidin-4-yl)piperazine-1-[5-chloro-1-(2,4-dimethoxyphenylsulfonyl)-3-(2-ethoxy-5-methylpyridin-3-yl)-2-oxo-2,3-dihydro-1H-indol-3-yl]carboxamide, trifluoroacetic acid salt]	++ (25-75)	< 1 nM		+ (>75-100 μl min^−1 mg^−1)
CCOc1ncccc1C1(CC(=O)N2CCC(N3CCN(CC)CC3)CC2)C(=O)N(S(=O)(=O)c2ccc(OC)cc2OC)c2ccc(Cl)cc21.O=C(O)C(F)(F)F (racemic) [Example 32, (±)-5-Chloro-1-(2,4-dimethoxyphenylsulfonyl)-3-(2-ethoxypyridin-3-yl)-3-{2-[4-(4-ethylpiperazin-1-yl)piperidin-1-yl]-2-oxoethyl}-1,3-dihydroindol-2-one, trifluoroacetic acid salt]	+ (10-<25)	< 1 nM	50 to 75 µL/min/mg	
CCOc1ncccc1C1(CC(=O)N2CCN(C3CCN(C)CC3)CC2)C(=O)N(S(=O)(=O)c2ccccc2)c2ccc(Cl)cc21.O=C(O)C(F)(F)F (racemic) [Example 29, (±)-1-Phenylsulfonyl-5-chloro-3-(2-ethoxypyridin-3-yl)-3-{2-[4-(1-methylpiperidin-4-yl)piperazin-1-yl]-2-oxoethyl}-1,3-dihydroindol-2-one, trifluoroacetic acid salt]	+ (10-<25)	1 to 10 nM	< 50 µL/min/mg	

From patent US20150158845A1, “5-HALOGEN-SUBSTITUTED OXINDOLE DERIVATIVES AND USE THEREOF FOR TREATING VASOPRESSIN-DEPENDENT DISEASES” (ABBVIE DEUTSCHLAND GMBH & CO. KG, priority 2007, published 2015)
